For this assay, the target named is T1, human mGluR2 receptor (Homo sapiens, UniProt Q14416).
T1 construct: expressed in transfected cells; host or cells: CHO cells (membranes)
The experiment in a line: [35S]GTPγS binding assay, mGluR2 positive allosteric modulation (PAM). The following applies: membranes from CHO cells transfected with human mGluR2, in presence of glutamate at EC20; for EC50: -log EC50 with EC50 in M, read-out: GTPγS - hmGluR2 PAM pEC50 (converted); for Emax / GTPγS - hmGluR2 PAM Emax: maximal % effect relative to the control glutamate response; for Emax: read-out: GTPγS - hmGluR2 PAM Emax. In kind it is biochemical. Here is the method: The [^35S]GTPγS binding assay is a functional membrane-based assay used to study G-protein coupled receptor (GPCR) function whereby incorporation of a non-hydrolysable form of GTP, [^35S]GTPγS (guanosine 5′-triphosphate, labelled with […] ^35S), is measured. The G-protein α subunit catalyzes the exchange of guanosine 5′-diphosphate (GDP) by guanosine triphosphate (GTP) and on activation of the GPCR by an agonist, [^35S]GTPγS, becomes incorporated and cannot be cleaved to continue the exchange cycle (Harper (1998) Current Protocols in Pharmacology 2.6.1-10, John Wiley & Sons, Inc.). […] Here we describe the use of the [^35S]GTPγS binding assay using membranes from cells transfected with the human mGluR2 receptor and adapted from Schaffhauser et al. ((2003) Molecular Pharmacology 4:798-810) for the detection of the positive allosteric modulation (PAM) properties of the compounds of this invention.
CHO-cells were cultured to pre-confluence and stimulated with 5 mM butyrate for 24 h. Cells were then collected by scraping in PBS and cell suspension was centrifuged (10 min at 4000 RPM in benchtop centrifuge). Supernatant was discarded and pellet gently resuspended in 50 mM Tris-HCl, pH 7.4 by mixing with a vortex and pipetting up and down. The suspension was centrifuged at 16,000 RPM (Sorvall RC-5C plus rotor SS-34) for 10 minutes and the supernatant discarded. The pellet was homogenized in 5 mM Tris-HCl, pH 7.4 using an ultra-turrax homogenizer and centrifuged again (18,000 RPM, 20 min, 4° C.). The final pellet was resuspended in 50 mM Tris-HCl, pH 7.4 and stored at −80° C. in appropriate aliquots before use. Protein concentration was determined by the Bradford method (Bio-Rad, USA) with bovine serum albumin as standard.
Measurement of mGluR2 positive allosteric modulatory activity of test compounds was performed as follows. Test compounds and glutamate were diluted in assay buffer containing 10 mM HEPES acid, 10 mM HEPES salt, pH 7.4, 100 mM NaCl, 3 mM MgCl2 and 10 μM GDP. Human mGlu2 receptor-containing membranes were thawed on ice and diluted in assay buffer supplemented with 14 μg/ml saponin. Membranes were pre-incubated with compound alone or together with a predefined (˜EC20) concentration of glutamate (PAM assay) for 30 min at 30° C. After addition of [^35S]GTPγS (f.c. 0.1 nM), assay mixtures were shaken briefly and further incubated to allow [^35S]GTPγS incorporation on activation (30 minutes, 30° C.). Final assay mixtures contained 7 μg of membrane protein in 10 mM HEPES acid, 10 mM HEPES salt, pH 7.4, 100 mM NaCl, 3 mM MgCl2, 10 μM GDP and 10 μg/ml saponin. Total reaction volume was 200 μl. Reactions were terminated by rapid filtration through Unifilter-96 GF/B plates (Perkin Elmer, Mass., USA) using a 96-well filtermate universal harvester. Filters were washed 6 times with ice-cold 10 mM NaH2PO4/10 mM Na2HPO4, pH 7.4. Filters were then air-dried, and 40 μl of liquid scintillation cocktail (Microscint-O) was added to each well. Membrane-bound radioactivity was counted in a Microplate Scintillation and Luminescence Counter from Perkin Elmer.
The concentration-response curves of representative compounds of the present invention-obtained in the presence of EC20 of mGluR2 agonist glutamate to determine positive allosteric modulation (PAM)-were generated using the Lexis software interface (developed at J&J).

Counter-ions that a name gives are not always drawn.

Results on 18 compounds are retold here after patent US8993591B2, “1,2,4-triazolo[4,3-a] pyridine derivatives and their use as positive allosteric modulators of MGLUR2 receptors” (Janssen Pharmaceuticals, Inc., priority 2010, dated 2015).

T1 sequence (Q14416 19-872): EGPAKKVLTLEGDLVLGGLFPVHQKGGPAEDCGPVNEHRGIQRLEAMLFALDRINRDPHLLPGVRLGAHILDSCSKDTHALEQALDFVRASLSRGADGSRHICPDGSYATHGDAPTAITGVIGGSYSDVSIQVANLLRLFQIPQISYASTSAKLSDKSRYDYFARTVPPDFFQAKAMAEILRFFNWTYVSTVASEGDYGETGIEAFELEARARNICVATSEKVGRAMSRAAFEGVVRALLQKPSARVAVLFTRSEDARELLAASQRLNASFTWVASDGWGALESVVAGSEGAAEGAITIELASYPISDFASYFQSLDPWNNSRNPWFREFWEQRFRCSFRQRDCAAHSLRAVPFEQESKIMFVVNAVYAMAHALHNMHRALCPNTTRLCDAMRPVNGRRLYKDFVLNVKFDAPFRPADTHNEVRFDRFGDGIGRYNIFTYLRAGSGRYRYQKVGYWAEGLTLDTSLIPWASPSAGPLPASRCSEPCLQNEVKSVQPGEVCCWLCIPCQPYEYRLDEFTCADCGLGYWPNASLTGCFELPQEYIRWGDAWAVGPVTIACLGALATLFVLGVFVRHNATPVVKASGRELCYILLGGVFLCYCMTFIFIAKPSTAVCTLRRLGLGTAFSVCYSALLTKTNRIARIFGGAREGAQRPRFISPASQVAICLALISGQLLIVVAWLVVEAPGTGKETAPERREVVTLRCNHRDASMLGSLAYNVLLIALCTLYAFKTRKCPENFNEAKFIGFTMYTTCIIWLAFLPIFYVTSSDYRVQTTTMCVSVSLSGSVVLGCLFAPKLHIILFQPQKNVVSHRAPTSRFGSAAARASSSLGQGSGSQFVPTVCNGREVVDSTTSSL

The term Emax denotes the maximal effect, on the per cent scale that the assay sets. For `Fc1ccc(N2CCN(Cc3ccn4c(CC5CC5)nnc4c3C(F)(F)F)C3CC32)c(F)c1` (racemic) [Compound 12, 2-[[3-(Cyclopropylmethyl)-8-(trifluoromethyl)-1,2,4-triazolo[4,3-a]pyridin-7-yl]methyl]-5-(2,4-difluorophenyl)-2,5-diazabicyclo[4.1.0]heptane (cis)], the EC50 was 12.6 nM and the maximum response (Emax) came out at 277%.

For the compound `CC1(c2ccccc2)CN(Cc2ccn3c(CC4CC4)nnc3c2C(F)(F)F)CCN1` (single isomer, unassigned) [Compound 3a, 3-(Cyclopropylmethyl)-7-[(3-methyl-3-phenyl-1-piperazinyl)methyl]-8-(trifluoromethyl)-1,2,4-triazolo[4,3-a]pyridine (*R) hydrochloride hydrate (.2HCl.2.5H2O)], the Emax was determined as 271%. `CC1(c2ccccc2)CN(Cc2ccn3c(CC4CC4)nnc3c2C(F)(F)F)CCN1` (single isomer, unassigned) [Compound 3b, 3-(cyclopropylmethyl)-7-[(3-methyl-3-phenyl-1-piperazinyl)methyl]-8-(trifluoromethyl)-1,2,4-triazolo[4,3-a]pyridine (*S) hydrochloride hydrate (.2.4HCl.2.7H2O)]: the EC50 was 37.2 nM and the Emax is 292%. As for `FC(F)(F)c1c(CN2CCNC(c3ccccc3)C2)ccn2c(CC3CC3)nnc12` (single isomer, unassigned) [Compound 5a, 3-(Cyclopropylmethyl)-7-[(3-phenyl-1-piperazinyl)methyl]-8-(trifluoromethyl)-1,2,4-triazolo[4,3-a]pyridine(*R)], the EC50 is 2240 nM and the Emax amounted to 270%. `FC(F)(F)c1c(CN2CCNC(c3ccccc3)C2)ccn2c(CC3CC3)nnc12` (single isomer, unassigned) [Compound 5b, 3-(cyclopropylmethyl)-7-[(3-phenyl-1-piperazinyl)methyl]-8-(trifluoromethyl)-1,2,4-triazolo[4,3-a]pyridine (*S)]: the EC50 is 955 nM and the “GTPγS - hmGluR2 PAM Emax” value is 278%. The like results for `Fc1ccccc1C1CN(Cc2ccn3c(CC4CC4)nnc3c2C(F)(F)F)CCN1` (single isomer, unassigned) [Compound 6a, 3-(cyclopropylmethyl)-7-[[3-(2-fluorophenyl)-1-piperazinyl]methyl]-8-(trifluoromethyl)-1,2,4-triazolo[4,3-a]pyridine (*R)] were, in that order, 447 nM and 208%. Regarding `Fc1ccccc1C1CN(Cc2ccn3c(CC4CC4)nnc3c2C(F)(F)F)CCN1` (single isomer, unassigned) [Compound 6b, 3-(cyclopropylmethyl)-7-[[3-(2-fluorophenyl)-1-piperazinyl]methyl]-8-(trifluoromethyl)-1,2,4-triazolo[4,3-a]pyridine (*S)], the EC50 was 631 nM and the “GTPγS - hmGluR2 PAM Emax” value was 294%. As to `CN1CCN(Cc2ccn3c(CC4CC4)nnc3c2C(F)(F)F)CC1c1ccccc1` (single isomer, unassigned) [Compound 7a, 3-(Cyclopropylmethyl)-7-[(4-methyl-3-phenyl-1-piperazinyl)methyl]-8-(trifluoromethyl)-1,2,4-triazolo[4,3-a]pyridine (*R)], the Emax stood at 199%. In the case of `CN1CCN(Cc2ccn3c(CC4CC4)nnc3c2C(F)(F)F)CC1c1ccccc1` (single isomer, unassigned) [Compound 7b, 3-(cyclopropylmethyl)-7-[(4-methyl-3-phenyl-1-piperazinyl)methyl]-8-(trifluoromethyl)-1,2,4-triazolo[4,3-a]pyridine (*S)], the EC50 is 263 nM and the maximum response (Emax) was found to be 198%. With `CC1(c2ccccc2)CN(Cc2ccn3c(CC4CC4)nnc3c2C(F)(F)F)CCO1` (single isomer, unassigned) [Compound 8a, 3-(Cyclopropylmethyl)-7-[(2-methyl-2-phenyl-4-morpholinyl)methyl]-8-(trifluoromethyl)-1,2,4-triazolo[4,3-a]pyridine (*R) hydrochloride hydrate (.1.1HCl.1.1H2O)], the EC50 is 676 nM and the “GTPγS - hmGluR2 PAM Emax” value came to 273%. Take `CC1(c2ccccc2)CN(Cc2ccn3c(CC4CC4)nnc3c2C(F)(F)F)CCO1` (single isomer, unassigned) [Compound 8b, 3-(cyclopropylmethyl)-7-[(2-methyl-2-phenyl-4-morpholinyl)methyl]-8-(trifluoromethyl)-1,2,4-triazolo[4,3-a]pyridine (*S) hydrochloride hydrate (.1.3HCl.1.6H2O)]: the EC50 was 8.32 nM and the “GTPγS - hmGluR2 PAM Emax” value came to 243%. Consider `Cc1nnc2c(C(F)(F)F)c(CN3CCCC(C)(c4ccccc4)C3)ccn12` (single isomer, unassigned) [Compound 10, 3-Methyl-7-[(3-methyl-3-phenyl-1-piperidinyl)methyl]-8-(trifluoromethyl)-1,2,4-triazolo[4,3-a]pyridine (*S)], for which the Emax worked out at 193%. As to `Cc1nnc2c(C(F)(F)F)c(CN3CCCC(C)(c4ccccc4)C3)ccn12` (single isomer, unassigned) [Compound 11, 3-Methyl-7-[(3-methyl-3-phenyl-1-piperidinyl)methyl]-8-(trifluoromethyl)-1,2,4-triazolo[4,3-a]pyridine (*R)], the EC50 was 53.7 nM and the Emax was determined as 268%. As for `CC1(c2ccccc2)CCN(Cc2ccn3c(CC4CC4)nnc3c2C(F)(F)F)C1` (single isomer, unassigned) [Compound 13, 3-(cyclopropylmethyl)-7-[(3-methyl-3-phenyl-1-pyrrolidinyl)methyl]-8-(trifluoromethyl)-1,2,4-triazolo[4,3-a]pyridine (*R)], the EC50 is 12.6 nM and the “GTPγS - hmGluR2 PAM Emax” value amounted to 248%. With `CC1(c2ccccc2)CCN(Cc2ccn3c(CC4CC4)nnc3c2C(F)(F)F)C1` (single isomer, unassigned) [Compound 14, 3-(cyclopropylmethyl)-7-[(3-methyl-3-phenyl-1-pyrrolidinyl)methyl]-8-(trifluoromethyl)-1,2,4-triazolo[4,3-a]pyridine (*S)], the EC50 is 15.1 nM and the “GTPγS - hmGluR2 PAM Emax” value was determined as 286%. In the case of `Fc1ccc(C2CN(Cc3ccn4c(CC5CC5)nnc4c3C(F)(F)F)CCO2)c(F)c1` (single isomer, unassigned) [Compound 17, 3-(Cyclopropylmethyl)-7-{[(2*R)-2-(2,4-difluorophenyl)morpholin-4-yl]methyl}-8-(trifluoromethyl)[1,2,4]triazolo[4,3-a]pyridine], the EC50 was 977 nM and the Emax came to 259%.

`Fc1ccc(C2CN(Cc3ccn4c(CC5CC5)nnc4c3C(F)(F)F)CCO2)c(F)c1` (single isomer, unassigned) [Compound 18, 3-(Cyclopropylmethyl)-7-{[(2*S)-2-(2,4-difluorophenyl)morpholin-4-yl]methyl}-8-(trifluoromethyl)[1,2,4]triazolo[4,3-a]pyridine]: the EC50 is 51.3 nM and the “GTPγS - hmGluR2 PAM Emax” value was 242%. For the compound `Fc1ccc(C2CN(Cc3ccn4c(CC5CC5)nnc4c3C(F)(F)F)CCN2)c(F)c1` (single isomer, unassigned) [Compound 19a, 3-(Cyclopropylmethyl)-7-{[(3*R)-3-(2,4-difluorophenyl)piperazin-1-yl]methyl}-8-(trifluoromethyl)[1,2,4]triazolo[4,3-a]pyridine], the EC50 is 912 nM and the “GTPγS - hmGluR2 PAM Emax” value is 320%.
